From US20260028352A1, “MACROCYCLIC IMIDAZO [1,2-B] PYRIDAZINE DERIVATIVE, PREPARATION METHOD THEREFOR, AND USE THEREOF” (SUZHOU LANGRUI BIOPHARMACEUTICAL CO., LTD., priority 2022, published 2026) come the findings set out here.

For this experiment, the system named is Ba/F3-TPM3-NTRK1-G667C cells. The experiment can be described thus: Growth inhibition of Ba/F3-TPM3-NTRK1-G667C cells (Cell Titer-Glo). The format is cell-based. The following applies: 72 hours, CTG; read-out: inhibitory activity IC50 Ba/F3-TPM3-NTRK1-G667C. How it is done: Then the solutions were subjected to a gradient dilution with DMSO: a clean, sterile V-bottom 96-well microplate was placed in the biological safety cabinet. First, 4 μL of DMSO was added to well B2 and 10 μL of DMSO was added to wells B3-B11 respectively; Next, 6 μL of the 10 mM solution was added to well B2. The microplate was pipetted up and down 10 times for mixing. […] Mixing was performed by pipetting up and down 10 times. The solution was diluted in order until well B10. only DMSO was added to well B11 (no compound).
6× Compound Solution Preparation (6-fold dilution, × represents dilution factor): (Initial final concentration: 10 μM), a clean, sterile V-bottom 96-well microplate was placed in the biological safety cabinet. 99 μL of cell culture medium was added to each well from B2 to G11. By using a 12-channel pipettor, 1 μL of the compound solution prepared in the previous step was added into the corresponding wells. The solutions were pipetted up and down 10 times to mix the solutions. The highest concentration of compound in this step was 60 μM.
Treatment of Cells: the above-prepared cell culture plate was taken out of the incubator. 20 μL of compound solution from each well was added to the corresponding cell culture wells. The lowest pipetting speed was used and touching the bottom of the plate was avoided. The culture plate was gently shaked to mix the compound solution, then the plate was returned to the incubator for further culture for 72 hours.
The highest treatment concentration of the compound was 10 μM. After 72 hours of treatment, the Cell Titer-Glo (CTG) assay was performed. First, the cell culture plate was removed from the CO2 incubator and allowed to stand at room temperature for 30 minutes to ensure uniform temperature of the plate. The pre-prepared Cell Titer-Glo reagent (following the manufacturer's instructions) was taken and allowed to stand at room temperature to thaw. 60 μL of Cell Titer-Glo reagent was added to each well containing cells. The cells were incubated on a horizontal shaker in a dark place at 225 rpm for 1 hour at room temperature. Then, a Tecan Spark microplate reader was used to read the plate using chemiluminescence according to the manufacturer's instructions.
(In general: ATP-based viability assays read luminescence as a measure of living cells.)
With `CC1Nc2ccc3ncc(n3n2)-c2cc(ccn2)OCc2ccc(F)cc21` (stereo not shown) [Example I-13, (E)-5^4-fluoro-6-methyl-3-oxa-7-aza-1(3,6)-imidazo[1,2-b]pyridazina-2(2,4)-pyridina-5(1,2)-benzenacycloheptaphane], the IC50 is below 100 nM.
The value for `C[C@@H]1Cc2ccnc(c2)-c2cnc3ccc(nn23)N[C@H](C)c2cc(F)ccc2O1` [Example I-34, (4R,7R,E)-5^5-fluoro-4,7-dimethyl-6-oxa-3-aza-2(3,6)-imidazo[1,2-b]pyridazina-1(2,4)-pyridina-5(1,2)-benzenacyclooctaphane] was below 100 nM; that for `C[C@@H]1Cc2cc(ncn2)-c2cnc3ccc(nn23)N[C@H](C)c2cc(F)ccc2O1` [Example I-35, (4R,7R,E)-5^5-fluoro-4,7-dimethyl-6-oxa-3-aza-2(3,6)-imidazo[1,2-b]pyridazina-1(4,6)-pyrimidina-5(1,2)-benzenacyclooctaphane] was below 100 nM; that for `C[C@@H]1Cc2ccnc(c2)-c2cnc3ccc(nn23)N[C@H](C)c2cc(F)cnc2O1` [Example I-36, (4R,7R,E)-5^5-fluoro-4,7-dimethyl-6-oxa-3-aza-2(3,6)-imidazo[1,2-b]pyridazina-1(2,4), 5(3,2)-dipyridinacyclooctaphane] was below 100 nM.
In the case of `C[C@@H]1Cc2ccnc(c2)-c2cnc3ccc(nn23)N2CCC[C@@H]2c2cc(F)ccc2O1` [Example I-37, (3^2R,6R,E)-4^5-fluoro-6-methyl-5-oxa-2(3,6)-imidazo[1,2-b]pyridazina-1(2,4)-pyridina-3(1,2)-pyrrolidina-4(1,2)-benzenacycloheptaphane] it was below 100 nM; in that of `C[C@@H]1Cc2ccnc(c2)-c2cnc3ccc(nn23)N2CCC[C@@H]2c2cc(F)cnc2O1` [Example I-38, (3^2R,6R,E)-4^5-fluoro-6-methyl-5-oxa-2(3,6)-imidazo[1,2-b]pyridazina-1(2,4),4(3,2)-dipyridina-3(1,2)-pyrrolidinacycloheptaphane], below 100 nM.
In the case of `C[C@H]1Nc2ccc3ncc(n3n2)-c2cc(ccn2)N2CC[C@H](C2)Oc2ccc(F)cc21` [Example I-41, (3^3R,6R,E)-5^4-fluoro-6-methyl-4-oxa-7-aza-1(3,6)-imidazo[1,2-b]pyridazina-2(2,4)-pyridina-3(1,3)-pyrrolidina-5(1,2)-benzenacycloheptaphane] it was below 100 nM; in that of `C[C@H]1Nc2ccc3ncc(n3n2)-c2cc(ccn2)N2CC[C@@H](C2)Oc2ccc(F)cc21` [Example I-42, (3^3S,6R,E)-5^4-fluoro-6-methyl-4-oxa-7-aza-1(3,6)-imidazo[1,2-b]pyridazina-2(2,4)-pyridina-3(1,3)-pyrrolidina-5(1,2)-benzenacycloheptaphane], below 100 nM; in that of `C[C@H]1Nc2ccc3ncc(n3n2)-c2cc(ccn2)N2CCC[C@H](C2)Oc2ccc(F)cc21` [Example I-43, (3^3R,6R,E)-5^4-fluoro-6-methyl-4-oxa-7-aza-1(3,6)-imidazo[1,2-b]pyridazina-2(2,4)-pyridina-3(1,3)-piperidina-5(1,2)-benzenacycloheptaphane], below 100 nM.
In the case of `C[C@H]1Nc2ccc3ncc(n3n2)-c2cc(ccn2)N2CCC[C@@H](C2)Oc2ccc(F)cc21` [Example I-44, (3^3S,6R,E)-5^4-fluoro-6-methyl-4-oxa-7-aza-1(3,6)-imidazo[1,2-b]pyridazina-2(2,4)-pyridina-3(1,3)-piperidina-5(1,2)-benzenacycloheptaphane], the IC50 was below 100 nM.
The value for `Fc1ccc2c(c1)[C@H]1CCCN1c1ccc3ncc(n3n1)-c1cc(ccn1)[C@H]1CCC[C@H]1O2` [Example I-45, (8aR,11aR,16bR,E)-15-fluoro-8a,10,11,11a,16b,17,18,19-octahydro-9H-1,21-etheno-4,8-(metheno)benzo[b]cyclopenta[o]imidazo[1,5-h]pyrrolo[2,1-d][1]oxa[5,7,8,11]tetraazacyclohexadecine] was below 100 nM; that for `Fc1ccc2c(c1)[C@H]1CCCN1c1ccc3ncc(n3n1)-c1cc(ccn1)[C@@H]1CCC[C@H]1O2` [Example I-46, (8aS,11aR,16bR,E)-15-fluoro-8a,10,11,11a,16b,17,18,19-octahydro-9H-1,21-etheno-4,8-(metheno)benzo[b]cyclopenta[o]imidazo[1,5-h]pyrrolo[2,1-d][1]oxa[5,7,8,11]tetraazacyclohexadecine] was below 100 nM.
The value for `Fc1ccc2c(c1)C1(CC1)Nc1ccc3ncc(n3n1)-c1cc(ccn1)CO2` [Example I-47, (E)-4′-fluorospiro[cyclopropane-1,6′-4-oxa-7-aza-1(3,6)-imidazo[1,2-b]pyridazina-2(2,4)-pyridina-5(1,2)-benzenacycloheptaphane]] was below 100 nM; that for `CC1(C)Nc2ccc3ncc(n3n2)-c2cc(ccn2)COc2ccc(F)cc21` [Example I-48, (E)-5^4-fluoro-6,6-dimethyl-4-oxa-7-aza-1(3,6)-imidazo[1,2-b]pyridazina-2(2,4)-pyridina-5(1,2)-benzenacycloheptaphane] was below 100 nM; that for `Fc1cnc2c(c1)[C@H]1CCCN1c1ccc3ncc(n3n1)-c1cc(ccn1)CO2` [Example I-51, (14bR,E)-13-fluoro-14b,15,16,17-tetrahydro-9H-1,19-etheno-4,8-(metheno)imidazo[1,5-h]pyrido[2,3-b]pyrrolo[2,1-d][1]oxa[5,7,8,11]tetraazacyclopentadecine] was below 100 nM.
In the case of `Fc1ccc2c(c1)[C@H]1CCCN1c1ccc3ncc(n3n1)-c1cc(ccn1)CCO2` [Example I-53, (3^2R,E)-4^5-fluoro-5-oxa-2(3,6)-imidazo[1,2-b]pyridazina-1(2,4)-pyridina-3(1,2)-pyrrolidina-4(1,2)-benzenacycloheptaphane], the IC50 was below 100 nM.
The value for `Fc1cnc2c(c1)[C@H]1CCCN1c1ccc3ncc(n3n1)-c1cc(ccn1)CCO2` [Example I-55, (3^2R,E)-4^5-fluoro-5-oxa-2(3,6)-imidazo[1,2-b]pyridazina-1(2,4),4(3,2)-dipyridina-3(1,2)-pyrrolidinacycloheptaphane] was below 100 nM; that for `Fc1ccc2c(c1)[C@H]1CCCN1c1ccc3ncc(n3n1)-c1cc(ncn1)CO2` [Example I-57, (14bR,E)-13-fluoro-14b,15,16,17-tetrahydro-9H-1,19-etheno-4,8-(metheno)benzo[n]imidazo[5,1-h]pyrrolo[1,2-l][1]oxa[4,6,9,10,12]pentaazacyclopentadecine] was below 100 nM; that for `Fc1cnc2c(c1)[C@H]1CCCN1c1ccc3ncc(n3n1)-c1cc(ncn1)CO2` [Example I-59, (14bR,E)-13-fluoro-14b,15,16,17-tetrahydro-9H-1,19-etheno-4,8-(metheno)imidazo[5,1-h]pyrido[3,2-n]pyrrolo[1,2-l][1]oxa[4,6,9,10,12]pentaazacyclopentadecine] was below 100 nM.
The value for `Fc1ccc2c(c1)[C@H]1CCCN1c1ccc3ncc(n3n1)-c1nccc(n1)CO2` [Example I-61, (14bR,E)-13-fluoro-14b,15,16,17-tetrahydro-9H-4,8-(azeno)-1,19-etheno benzo[b]imidazo[1,5-h]pyrrolo[2,1-d][1]oxa[5,7,8,11]tetraazacyclopentadecine] was below 100 nM.
In the case of `Fc1cnc2c(c1)[C@H]1CCCN1c1ccc3ncc(n3n1)-c1nccc(n1)CO2` [Example I-63, (14bR,E)-13-fluoro-14b,15,16,17-tetrahydro-9H-4,8-(azeno)-1,19-etheno imidazo[1,5-h]pyrido[2,3-b]pyrrolo[2,1-d][1]oxa[5,7,8,11]tetraazacyclopentadecine] it was below 100 nM; in that of `Fc1ccc2c(c1)[C@H]1CCCN1c1ccc3ncc(n3n1)-c1cc(cnn1)CO2` [Example I-65, (14bR,E)-13-fluoro-14b,15,16,17-tetrahydro-9H-1,19-etheno-4,8-(metheno)benzo[n]imidazo[5,1-h]pyrrolo[1,2-l][1]oxa[5,6,9,10,12]pentaazacyclopentadecine], below 100 nM.
Regarding `Fc1cnc2c(c1)[C@H]1CCCN1c1ccc3ncc(n3n1)-c1cc(cnn1)CO2` [Example I-67, (14bR,E)-13-fluoro-14b,15,16,17-tetrahydro-9H-1,19-etheno-4,8-(metheno)imidazo[5,1-h]pyrido[3,2-n]pyrrolo[1,2-l][1]oxa[5,6,9,10,12]pentaazacyclopentadecine], the IC50 was below 100 nM.
In the case of `Fc1cnc2c(c1)[C@H]1CCCN1c1ccc3ncc(n3n1)-c1cc(ncn1)CCO2` [Example I-71, (3^2R,E)-4^5-fluoro-5-oxa-2(3,6)-imidazo[1,2-b]pyridazina-1(4,6)-pyrimidina-4(3,2)-pyridina-3(1,2)-pyrrolidinacycloheptaphane] it was below 100 nM; in that of `C[C@H]1Nc2ccc3ncc(n3n2)-c2cc(ncn2)CCOc2ncc(F)cc21` [Example I-73, (4R,E)-5^5-fluoro-4-methyl-6-oxa-3-aza-2(3,6)-imidazo[1,2-b]pyridazina-1(4,6)-pyrimidina-5(3,2)-pyridinacyclooctaphane], below 100 nM.
